Among the test systems are HCT-116 colon; SF-295 CNS; MALME-3M melanoma; PC-3 prostate; DU-145 prostate; RPMI-8226 leukemia; MOLT-4 leukemia; UACC-62 melanoma; K-562 leukemia; A498 renal.
Holding throughout (experiment): DTP human tumour cell line panel, 48 h

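Exposure lasted 48 hours, with cells grown in 96-well plates and compounds tested at five concentrations. GI50: concentration for 50% inhibition of growth. The concentration for full growth arrest is given as TGI.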

With `COc1cc([C@@H]2c3cc4c(cc3C(OC3O[C@@H]5COC(C)O[C@H]5[C@H](O)[C@H]3O)C3COC(=O)[C@@H]32)OCO4)cc(OC)c1O` (stereo not given in full), the GI50 is 1.27 µM with HCT-116 colon; 0.72 µM in the experiment on SF-295 CNS; 1.21 µM with MALME-3M melanoma; 5.59 µM with PC-3 prostate; 1.2 µM in the experiment with DU-145 prostate; 0.666 µM with RPMI-8226 leukemia. In addition, the GI50 is 0.0948 µM in the experiment with MOLT-4 leukemia, 0.868 µM in the experiment on UACC-62 melanoma, 1.53 µM in the experiment with K-562 leukemia and 0.605 µM in the experiment with A498 renal. The TGI is more than 50 µM with HCT-116 colon; 9.83 µM in the experiment with SF-295 CNS; 14.1 µM in the experiment with MALME-3M melanoma; more than 50 µM in the experiment with PC-3 prostate; 5.78 µM in the experiment with DU-145 prostate; 7.83 µM in the experiment on RPMI-8226 leukemia. Besides, the concentration for total growth inhibition (TGI) was 0.882 µM with MOLT-4 leukemia, more than 44.9 µM in the experiment on UACC-62 melanoma, more than 30.3 µM with K-562 leukemia and 14 µM with A498 renal.

Consider `Nc1c(C(=O)Nc2cccc(Br)c2)sc2nc3c(cc12)C(O)CCC3` (stereo not given), for which the GI50 was 0.483 µM with HCT-116 colon; 0.314 µM in the experiment on SF-295 CNS; 0.522 µM with MALME-3M melanoma; 0.349 µM in the experiment with PC-3 prostate; 0.455 µM in the experiment with DU-145 prostate; 0.404 µM in the experiment with RPMI-8226 leukemia. Moreover, the GI50 was 0.518 µM with MOLT-4 leukemia, 0.41 µM in the experiment on UACC-62 melanoma, 0.12 µM with K-562 leukemia and 0.207 µM with A498 renal. The TGI in the experiment with HCT-116 colon was more than 51.6 µM; in the experiment with SF-295 CNS, 16.2 µM; with MALME-3M melanoma, more than 87.1 µM; in the experiment with PC-3 prostate, 24.4 µM; in the experiment on DU-145 prostate, 22.4 µM; in the experiment on RPMI-8226 leukemia, 23.5 µM. The TGI with MOLT-4 leukemia was 98 µM; in the experiment with UACC-62 melanoma, more than 94.9 µM; in the experiment on K-562 leukemia, more than 38.4 µM; in the experiment with A498 renal, 3.91 µM.

On to `O=c1c2c3c(sc2n2c(-c4ccc(Br)cc4)nnc2n1Cc1ccccc1)CCCC3`, for which the GI50 was 9.56 µM with HCT-116 colon; 2.42 µM with SF-295 CNS; 3.19 µM with MALME-3M melanoma; 2.97 µM in the experiment on PC-3 prostate; 9.72 µM in the experiment with DU-145 prostate; 3.85 µM in the experiment on RPMI-8226 leukemia. Moreover, the GI50 is 3.84 µM in the experiment with MOLT-4 leukemia, 4.39 µM in the experiment with UACC-62 melanoma, 23.8 µM in the experiment with K-562 leukemia and 10.9 µM in the experiment on A498 renal. In addition, the TGI in the experiment with HCT-116 colon amounted to 22.7 µM; with SF-295 CNS it was 7.51 µM; in the experiment with MALME-3M melanoma, 19.5 µM; in the experiment with PC-3 prostate it was 16.6 µM; with DU-145 prostate, 22.9 µM; in the experiment on RPMI-8226 leukemia, 25.4 µM. For the same compound, the TGI in the experiment on MOLT-4 leukemia was 91.6 µM; with UACC-62 melanoma, 17.2 µM; in the experiment with K-562 leukemia, more than 100 µM; in the experiment with A498 renal, 22.9 µM.

On to `CC(=O)N1CCN(CCOc2ccc(C3CCN(C4=Nn5c(nnc5C(F)(F)F)CC4)CC3)cc2)CC1`, for which the GI50 was 15.7 µM with HCT-116 colon; 12.2 µM with SF-295 CNS; 9.89 µM with MALME-3M melanoma; 7.87 µM with PC-3 prostate; 63 µM in the experiment on DU-145 prostate; 4.74 µM with RPMI-8226 leukemia. Moreover, the GI50 was 27 µM in the experiment with MOLT-4 leukemia, 2.84 µM with UACC-62 melanoma, 8.25 µM in the experiment on K-562 leukemia and 12.8 µM in the experiment on A498 renal. The TGI is more than 100 µM in the experiment with HCT-116 colon; more than 85.9 µM in the experiment on SF-295 CNS; 99.6 µM in the experiment with MALME-3M melanoma; more than 100 µM in the experiment on PC-3 prostate; more than 100 µM in the experiment on DU-145 prostate; 79.7 µM with RPMI-8226 leukemia. In addition, the TGI with MOLT-4 leukemia was more than 100 µM; with UACC-62 melanoma it was more than 100 µM; in the experiment on K-562 leukemia, more than 100 µM; in the experiment on A498 renal, more than 89.8 µM.

Turning to `CC1(C)[C@@H](OC(N)=O)C=C[C@]2(C=O)[C@H]3CC[C@]4(C)[C@@H](c5ccc(=O)oc5)[C@@H](Cl)C[C@]4(O)C3=CC[C@@H]12`, the GI50 was 0.00409 µM in the experiment on HCT-116 colon; 0.00502 µM in the experiment with SF-295 CNS; 0.00525 µM with MALME-3M melanoma; 0.00517 µM with PC-3 prostate; 0.0041 µM with DU-145 prostate; 0.00719 µM with RPMI-8226 leukemia. The GI50 with MOLT-4 leukemia was less than 0.0025 µM; in the experiment on UACC-62 melanoma, 0.00491 µM; with K-562 leukemia, 0.00668 µM; in the experiment on A498 renal, 0.00594 µM. Moreover, the TGI in the experiment on HCT-116 colon was found to be 0.00818 µM; in the experiment with SF-295 CNS it was 0.0111 µM; in the experiment with MALME-3M melanoma, 0.0109 µM; in the experiment on PC-3 prostate it was 0.0148 µM; in the experiment with DU-145 prostate, 0.00785 µM; with RPMI-8226 leukemia it was 0.023 µM. In addition, the TGI in the experiment on MOLT-4 leukemia was determined as 0.00724 µM; with UACC-62 melanoma, 0.0105 µM; with K-562 leukemia, 0.0197 µM; in the experiment on A498 renal it was 0.0177 µM.

Broadly, the GI50 is the concentration that inhibits growth by half. The TGI is the concentration giving total growth inhibition. A low value points to greater sensitivity of the cells.

Values taken from PubChem BioAssay (NCI).
